According to publication PMC8151276, “An Integrated Approach toward NanoBRET Tracers for Analysis of GPCR Ligand Engagement” (Molecules, 2021):

Key:
Type in all cases: binding
GPR50 = target: T1, GPR50 (Homo sapiens, UniProt Q13585); assay: NanoBRET screen HiBiT-GPR50 in HEK293; details: GPR50
T1 construct: purchased Promega (in-house HiBiT-GPCR construct library, NanoBRET)
Description: (§1) Each tracer candidate was screened across the entire library of HiBiT-GPCR constructs using NanoBRET as the detection modality. As depicted in Figure 4A, the specificity of interactions was evaluated through decrease in BRET due to competitive displacement of a bound tracer by excess parental compound. Each tracer was analyzed for binding to each HiBiT-GPCR fusion in the absence and in the presence of competing parental compound. Briefly, HEK293 cells were transfected with HiBiT-GPCR constructs diluted into promoterless DNA to reduce expression and maximize translocation to the cell surface. Each tracer candidate was then screened at concentrations of 1 μM and 0.1 μM across cells expressing these fusions. Cells were treated for 1.5 h with tracer either alone or in the presence of 20 μM competing parental compound (i.e., control). BRET was measured upon addition of purified LgBiT and subsequent complementation with HiBiT genetically fused to a GPCR. The specificity of interactions was assessed through a decrease in BRET signal due to competitive displacement of the bound tracer. To further gauge the robustness of these interactions, the fold response over the control (i.e., BRETtracer/BRETcontrol) was calculated. We chose a 1.5-fold response, which translates to ≥7-fold signal over noise as the minimal threshold required to score an interaction as positive.
(§2) HiBiT-GPCR DNA constructs were diluted in 10 mM Tris pH 8 to a final concentration of 0.01 μg/μL, arrayed in 96-well plates and stored at −20 °C. For transfection, HEK293 cells were suspended in Opti-MEM (without phenol red) supplemented with 2% fetal bovine serum (Seradigm) and 100 units/mL penicillin–streptomycin (Gibco) at a final concentration of 220,000 cells/mL and dispensed into white 96-well plates at 90 μL/well. Subsequent transfections and screens were carried using an Agilent Bravo Automated Liquid Handling Platform. First, the 96-well HiBiT DNA arrays were diluted 25-fold in Opti-MEM (without serum or phenol red) to a final concentration of 0.0004 μg/μL and 20 μL of the diluted DNAs were transferred into new 96-well plates. Next, promoterless carrier DNA (1 μg/μL) was diluted 25-fold (0.04 μg/μL) and then dispensed into the diluted arrays at 20 μL/well. Following brief mixing, Viafect transfection reagent (Promega) diluted 16-fold into Opti-MEM was dispensed into the plates at 40 μL/well. After mixing by pipetting, plates were incubated for 10 min on the pipetting station deck. The DNA-transfection reagent complexes were then added to plates containing cells. To facilitate the screen, 10 μL of DNA-transfection reagent complexes were added in duplicates to the top 4 and bottom 4 rows, resulting in two identical 48-well arrays per plate. Plates with transfected cells were incubated for 18–20 h at 37 °C/5% CO2. A screen of each tracer across the entire library using two different concentrations requires duplicate plates of transfected cells. Depending on the number of tracers being screened, transfections can be scaled up using the same ratios. The next day, for each tracer, four 20× screening solutions in tracer dilution buffer (Promega) were prepared: two duplicates at final concentration of 20 μM and two duplicates at a final concentration of 2 μM. […] The four resulting solutions were diluted 4-fold in Opti-MEM without serum or phenol red to generate 5× solutions (5 µM and 0.5 µM tracer +/− 100 μM competing compound). To screen the library, a BioTek MultiFlo FX liquid dispenser was used to dispense 22.5 µL of tracer solution to the top 4 rows and 22.5 µL tracer + competing compound solution to the 4 bottom rows. Plates were briefly mixed on an orbital shaker and incubated for 1.5 h at room temperature. […] Plates were briefly mixed on an orbital shaker and incubated for 15 min to allow complementation.

CNR2 = target: T2, CNR2 (Homo sapiens, UniProt P34972); assay: NanoBRET screen HiBiT-CNR2 in HEK293; details: CNR2
T2 construct: purchased Promega (in-house HiBiT-GPCR construct library, NanoBRET)
T2 sequence (P34972 whole entry): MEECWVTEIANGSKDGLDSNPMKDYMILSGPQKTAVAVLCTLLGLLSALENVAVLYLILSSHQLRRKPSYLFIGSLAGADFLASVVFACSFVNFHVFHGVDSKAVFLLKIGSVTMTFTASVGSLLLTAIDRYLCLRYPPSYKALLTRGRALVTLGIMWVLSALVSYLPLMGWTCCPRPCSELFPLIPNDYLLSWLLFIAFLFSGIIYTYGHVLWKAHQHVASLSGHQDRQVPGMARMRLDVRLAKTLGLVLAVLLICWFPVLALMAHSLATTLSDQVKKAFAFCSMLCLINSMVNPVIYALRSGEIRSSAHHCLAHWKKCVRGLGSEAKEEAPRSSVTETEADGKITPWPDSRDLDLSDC
Description: as §1, §2

MC5R = target: T3, MC5R (Homo sapiens, UniProt P33032); assay: NanoBRET screen HiBiT-MC5R in HEK293; details: MC5R
T3 construct: purchased Promega (in-house HiBiT-GPCR construct library, NanoBRET)
T3 sequence (P33032 whole entry): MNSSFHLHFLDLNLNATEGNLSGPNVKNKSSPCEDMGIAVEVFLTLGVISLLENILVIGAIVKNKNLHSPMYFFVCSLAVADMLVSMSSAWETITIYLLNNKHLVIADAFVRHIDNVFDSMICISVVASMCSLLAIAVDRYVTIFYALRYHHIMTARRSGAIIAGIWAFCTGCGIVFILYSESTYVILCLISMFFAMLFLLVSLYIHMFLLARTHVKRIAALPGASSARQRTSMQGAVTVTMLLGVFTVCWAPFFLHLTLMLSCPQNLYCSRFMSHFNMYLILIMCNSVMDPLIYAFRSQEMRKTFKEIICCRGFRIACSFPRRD
Description: as §1, §2

T1 sequence (Q13585 whole entry): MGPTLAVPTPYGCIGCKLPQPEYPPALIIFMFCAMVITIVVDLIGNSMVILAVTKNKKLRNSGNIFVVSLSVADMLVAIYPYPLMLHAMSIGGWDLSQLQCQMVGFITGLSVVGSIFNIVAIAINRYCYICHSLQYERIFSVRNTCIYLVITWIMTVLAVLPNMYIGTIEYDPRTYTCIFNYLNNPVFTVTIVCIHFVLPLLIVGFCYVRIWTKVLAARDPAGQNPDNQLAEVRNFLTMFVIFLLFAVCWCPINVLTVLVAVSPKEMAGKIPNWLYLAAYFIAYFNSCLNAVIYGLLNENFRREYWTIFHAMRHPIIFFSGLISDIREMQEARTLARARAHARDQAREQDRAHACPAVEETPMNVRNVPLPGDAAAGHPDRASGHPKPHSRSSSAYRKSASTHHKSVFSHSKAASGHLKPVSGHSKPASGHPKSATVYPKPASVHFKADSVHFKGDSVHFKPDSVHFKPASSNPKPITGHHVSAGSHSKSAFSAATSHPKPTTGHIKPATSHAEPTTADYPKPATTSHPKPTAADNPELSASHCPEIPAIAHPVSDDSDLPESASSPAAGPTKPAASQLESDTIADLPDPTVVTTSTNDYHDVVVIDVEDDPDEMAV

| SMILES | NanoBRET Fold Response (GPR50; tracer 0.1μM) | NanoBRET Fold Response (CNR2; tracer 0.1μM) | NanoBRET Fold Response (MC5R; tracer 0.1μM) | NanoBRET Fold Response (MC5R; tracer 1μM) | NanoBRET Fold Response (GPR50; tracer 1μM) | NanoBRET Fold Response (CNR2; tracer 1μM) | NanoBRET Fold Response (GPR50; 0.1μM) | NanoBRET Fold Response (GPR50; 1μM) | NanoBRET Fold Response (CNR2; 0.1μM) | NanoBRET Fold Response (CNR2; 1μM) | NanoBRET Fold Response (MC5R; 1μM) |
| --- | --- | --- | --- | --- | --- | --- | --- | --- | --- | --- | --- |
| COc1ccccc1N1CCN(CCCCN2C(=O)c3ccc(CNC(=O)CCOCCOCCOCCOCCNC(=O)CCc4ccc5n4[B-](F)(F)[N+]4=C(c6ccc[nH]6)C=CC4=C5)cc3C2=O)CC1 [NAN-190-2-NB590] | 1.00 | 0.81 | 0.98 | 1.01 | – | – | – | – | – | – | – |
| O=C(CCOCCOCCOCCOCCNC(=O)CCc1ccc2n1[B-](F)(F)[N+]1=C(c3ccc[nH]3)C=CC1=C2)NCCCN1CCN(C2=Nc3ccccc3Oc3ccc(Cl)cc32)CC1 [Loxapine-a-2-NB590] | 0.74 | 0.33 | 1.04 | – | 1.09 | 1.25 | – | – | – | – | – |
| CCCn1c(=O)c2[nH]c(-c3ccc(OCC(=O)NCCNC(=O)CCOCCNC(=O)c4ccc(CNC(=O)CCc5ccc6n5[B-](F)(F)[N+]5=C(c7ccc[nH]7)C=CC5=C6)cc4)cc3)nc2n(CCC)c1=O [XAC-3-NB590] | 1.05 | 1.04 | 1.02 | 0.98 | 1.04 | 1.09 | – | – | – | – | – |
| CCOC(=O)c1cc(C#N)c(N2CCC(C(=O)NS(=O)(=O)Cc3ccccc3/C=C/C(=O)NCCNC(=O)CCc3ccc4n3[B-](F)(F)[N+]3=C(c5ccc[nH]5)C=CC3=C4)CC2)nc1C [AZD1283-1-NB590] | – | – | – | – | – | – | 0.97 | 0.97 | 1.04 | 0.91 | 0.99 |
